From ChEMBL document CHEMBL1201862, “PubChem BioAssay data set” (2004)
The source made the active and inactive calls.

Assays:
[1] = target: T1, Heat shock factor protein 1 (Mus musculus, UniProt P38532); assay: HSF1 potentiators in luciferase reporter cells, confirmation, cell-based, NIH3T3, luminescence, dose retest (AID 435004); type: functional;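 also: stress induced by proteasome inhibitor MG132 added 30 min after compound; luciferase reporter driven by HSF1 response element in NIH3T3 cells; actives raise luminescence as potentiators of the MG132 stress response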
T1 sequence (P38532 whole entry): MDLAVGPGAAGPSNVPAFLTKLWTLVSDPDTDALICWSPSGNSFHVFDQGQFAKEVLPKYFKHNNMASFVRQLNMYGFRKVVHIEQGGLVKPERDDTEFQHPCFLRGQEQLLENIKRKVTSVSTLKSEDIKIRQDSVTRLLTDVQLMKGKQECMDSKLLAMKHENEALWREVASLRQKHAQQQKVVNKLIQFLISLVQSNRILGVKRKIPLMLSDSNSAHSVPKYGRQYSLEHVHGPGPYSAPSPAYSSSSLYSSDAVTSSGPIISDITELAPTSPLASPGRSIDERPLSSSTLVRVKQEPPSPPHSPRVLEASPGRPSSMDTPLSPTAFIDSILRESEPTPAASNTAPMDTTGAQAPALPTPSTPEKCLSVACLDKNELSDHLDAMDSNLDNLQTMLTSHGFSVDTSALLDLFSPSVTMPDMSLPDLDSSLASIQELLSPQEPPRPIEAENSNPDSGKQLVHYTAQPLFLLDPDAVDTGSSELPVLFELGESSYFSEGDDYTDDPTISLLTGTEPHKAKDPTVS

[2] = tested on: H9c2; assay: cells; type: functional, cell-based; conditions: Rattus norvegicus, H9c2, Myocardium;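 also: confirmatory concentration-response retest of ultra-high-throughput screening hits for modulation of myocardial damage; cell death induced by hydrogen peroxide oxidative stress; compound pretreatment for 60 min then peroxide exposure for 2 h; potency is for protecting the cells against peroxide damage rather than for killing them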
[3] = C. albicans growth with fluconazole, confirmation, fluorescence, retest (AID 2467); type: functional, cell-based
[4] = NIH-3T3 fibroblast cytotoxicity, dose response, cytotoxicity control, cell-based, fluorescence, Alamar Blue, secondary assay (AID 2327); type: functional;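 also: NIH-3T3 mouse fibroblasts cultured with fluconazole at 8 µg/mL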
[5] = target: T2, Protein skinhead-1 (Caenorhabditis elegans, UniProt P34707); type: functional
T2 sequence (P34707 whole entry): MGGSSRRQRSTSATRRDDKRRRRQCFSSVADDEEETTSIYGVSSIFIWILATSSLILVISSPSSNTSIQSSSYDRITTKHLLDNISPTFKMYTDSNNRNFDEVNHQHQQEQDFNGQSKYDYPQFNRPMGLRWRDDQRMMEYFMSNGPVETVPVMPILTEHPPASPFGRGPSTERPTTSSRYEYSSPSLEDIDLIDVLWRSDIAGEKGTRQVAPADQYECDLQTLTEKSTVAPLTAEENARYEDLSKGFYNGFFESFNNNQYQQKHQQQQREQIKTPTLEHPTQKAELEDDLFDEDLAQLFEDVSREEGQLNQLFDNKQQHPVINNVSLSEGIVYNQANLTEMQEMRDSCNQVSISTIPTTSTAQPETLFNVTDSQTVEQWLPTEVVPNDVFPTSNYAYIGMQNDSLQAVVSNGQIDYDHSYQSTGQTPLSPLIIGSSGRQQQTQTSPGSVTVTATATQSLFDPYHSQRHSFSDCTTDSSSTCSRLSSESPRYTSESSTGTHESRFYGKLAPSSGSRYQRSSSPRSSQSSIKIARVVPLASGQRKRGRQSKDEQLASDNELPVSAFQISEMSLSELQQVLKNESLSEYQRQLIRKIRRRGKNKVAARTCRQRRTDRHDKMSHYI

[6] = target: Cytochrome P450 3A4 (Homo sapiens, UniProt P08684);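 also: CYP3A4 tested as one member of a cytochrome P450 panel screen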
Cytochrome P450 3A4, sequence (P08684 whole entry): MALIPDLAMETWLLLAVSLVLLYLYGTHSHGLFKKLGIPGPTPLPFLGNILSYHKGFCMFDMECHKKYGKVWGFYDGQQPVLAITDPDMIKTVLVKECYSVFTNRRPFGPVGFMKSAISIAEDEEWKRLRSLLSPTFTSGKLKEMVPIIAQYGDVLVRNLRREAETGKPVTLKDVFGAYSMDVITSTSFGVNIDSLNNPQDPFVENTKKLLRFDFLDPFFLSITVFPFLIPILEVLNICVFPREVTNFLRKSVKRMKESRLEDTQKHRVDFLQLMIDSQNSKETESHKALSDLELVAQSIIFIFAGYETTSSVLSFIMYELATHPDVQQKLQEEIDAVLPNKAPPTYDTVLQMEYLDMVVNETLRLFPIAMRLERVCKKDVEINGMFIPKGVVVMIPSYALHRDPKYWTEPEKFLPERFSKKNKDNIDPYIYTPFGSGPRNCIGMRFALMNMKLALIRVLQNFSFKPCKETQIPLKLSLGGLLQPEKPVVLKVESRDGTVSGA

[7] = target: T3, Cytochrome P450 1A2 (Homo sapiens, UniProt P05177);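 also: PubChem cytochrome P450 panel assay, CYP1A2 panel member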
T3 sequence (P05177 whole entry): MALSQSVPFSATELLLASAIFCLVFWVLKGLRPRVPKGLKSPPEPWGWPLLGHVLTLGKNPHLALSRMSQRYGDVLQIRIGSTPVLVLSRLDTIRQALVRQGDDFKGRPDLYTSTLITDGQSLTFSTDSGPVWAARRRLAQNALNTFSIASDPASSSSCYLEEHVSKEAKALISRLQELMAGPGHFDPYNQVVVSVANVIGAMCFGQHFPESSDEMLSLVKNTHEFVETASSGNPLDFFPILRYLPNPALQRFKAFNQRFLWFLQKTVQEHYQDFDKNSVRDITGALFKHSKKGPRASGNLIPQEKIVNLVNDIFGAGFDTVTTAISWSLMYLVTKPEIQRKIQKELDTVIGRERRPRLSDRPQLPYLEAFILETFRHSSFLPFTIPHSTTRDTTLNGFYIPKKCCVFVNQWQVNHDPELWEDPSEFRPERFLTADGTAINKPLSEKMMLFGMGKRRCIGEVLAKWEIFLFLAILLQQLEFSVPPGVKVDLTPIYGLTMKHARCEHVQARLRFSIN

[8] = HEp-2 cell cytotoxicity, dose response, cytotoxicity control for RSV inhibitor project, HTS (AID 2410); type: functional; conditions: human respiratory syncytial virus
[9] = target: Cytochrome P450 2D6 (Homo sapiens, UniProt P10635);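 also: CYP2D6 member of a cytochrome P450 panel assay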
Cytochrome P450 2D6, sequence (P10635 whole entry, the tested form may be a part): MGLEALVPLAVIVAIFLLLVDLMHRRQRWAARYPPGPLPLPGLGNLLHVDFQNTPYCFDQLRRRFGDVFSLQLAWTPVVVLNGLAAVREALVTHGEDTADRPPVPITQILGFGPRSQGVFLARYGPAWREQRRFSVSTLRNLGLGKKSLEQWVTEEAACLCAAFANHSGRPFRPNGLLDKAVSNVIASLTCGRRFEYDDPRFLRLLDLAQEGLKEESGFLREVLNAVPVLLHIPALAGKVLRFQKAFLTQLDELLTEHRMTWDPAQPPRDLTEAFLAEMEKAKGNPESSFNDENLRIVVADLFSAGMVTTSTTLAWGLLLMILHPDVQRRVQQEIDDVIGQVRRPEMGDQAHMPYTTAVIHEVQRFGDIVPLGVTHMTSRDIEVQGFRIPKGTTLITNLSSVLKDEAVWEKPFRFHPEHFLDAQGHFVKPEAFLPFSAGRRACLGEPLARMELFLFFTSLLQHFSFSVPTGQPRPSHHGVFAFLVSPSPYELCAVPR

[10] = target: T4, RNA-binding protein pos-1 (Caenorhabditis elegans, UniProt G5EF15); assay: inhibitors of POS-1/mex-3 RNA binding, dose response, biochemical, fluorescence polarization (AID 1964);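 also: purified POS-1 fused to maltose binding protein made in E. coli; potency of compounds blocking POS-1 binding to fluorescent RNA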
T4 sequence (G5EF15 whole entry): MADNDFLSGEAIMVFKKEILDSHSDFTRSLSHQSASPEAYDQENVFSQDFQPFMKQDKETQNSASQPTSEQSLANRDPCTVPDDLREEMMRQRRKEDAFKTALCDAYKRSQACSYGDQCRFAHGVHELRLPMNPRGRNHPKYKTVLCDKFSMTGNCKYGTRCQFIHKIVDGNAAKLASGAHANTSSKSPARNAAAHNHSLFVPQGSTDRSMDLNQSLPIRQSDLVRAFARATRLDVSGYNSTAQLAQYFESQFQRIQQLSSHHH

[11] = target: T5, Zinc finger protein mex-5 (Caenorhabditis elegans, UniProt Q9XUB2); assay: MEX-5/TCR-2 RNA interaction inhibitors, dose response, biochemical, C. elegans, fluorescence polarization (AID 1960)
T5 sequence (Q9XUB2 whole entry): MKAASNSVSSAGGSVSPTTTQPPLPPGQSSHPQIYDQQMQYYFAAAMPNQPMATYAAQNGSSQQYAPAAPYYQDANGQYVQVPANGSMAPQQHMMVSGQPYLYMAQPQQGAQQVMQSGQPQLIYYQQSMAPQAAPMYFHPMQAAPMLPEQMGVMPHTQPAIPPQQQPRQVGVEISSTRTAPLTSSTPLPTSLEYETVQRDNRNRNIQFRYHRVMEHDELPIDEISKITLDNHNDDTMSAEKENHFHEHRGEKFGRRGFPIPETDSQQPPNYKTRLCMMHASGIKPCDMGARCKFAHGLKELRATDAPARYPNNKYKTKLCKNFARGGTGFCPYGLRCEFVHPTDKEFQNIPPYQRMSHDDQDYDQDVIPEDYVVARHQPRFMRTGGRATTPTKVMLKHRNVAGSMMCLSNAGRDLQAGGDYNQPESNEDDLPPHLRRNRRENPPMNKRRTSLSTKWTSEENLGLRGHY

[12] = tested on: INS1; assay: beta cell apoptosis inhibitors, cytokine rescue, dose response, luminescence, retest (AID 449756); type: functional, cell-based; conditions: Rattus norvegicus;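 also: cell death triggered by IL-1 beta plus TNF-alpha plus IFN-gamma mixture; protective hits raise ATP signal compared with cytokine alone wells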
[13] = inhibitors of clade B AD8 Env fusion, dose response, cell-based, cherry-pick (AID 652062); type: functional;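 also: luciferase signal from cell-cell fusion driven by HIV-1 clade B AD8 Env; potency is for inhibitors of fusion seen as a drop in luminescence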
[14] = target: Cytochrome P450 2C9 (Homo sapiens, UniProt P11712)
Cytochrome P450 2C9, sequence (P11712 whole entry): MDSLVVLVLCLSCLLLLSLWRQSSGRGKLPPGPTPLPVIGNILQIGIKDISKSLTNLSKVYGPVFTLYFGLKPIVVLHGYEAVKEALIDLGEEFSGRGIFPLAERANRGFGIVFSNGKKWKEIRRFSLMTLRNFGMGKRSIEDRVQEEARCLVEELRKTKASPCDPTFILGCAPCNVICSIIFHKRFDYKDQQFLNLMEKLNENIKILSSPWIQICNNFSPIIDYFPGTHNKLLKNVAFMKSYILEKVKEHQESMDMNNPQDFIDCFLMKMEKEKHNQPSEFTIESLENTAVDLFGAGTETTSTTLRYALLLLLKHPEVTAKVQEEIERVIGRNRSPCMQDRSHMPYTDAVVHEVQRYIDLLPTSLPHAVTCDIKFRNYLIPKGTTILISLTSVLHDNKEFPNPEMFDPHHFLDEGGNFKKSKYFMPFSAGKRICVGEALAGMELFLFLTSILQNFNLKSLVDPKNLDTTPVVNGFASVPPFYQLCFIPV

CC1=Nc2ccccc2/C1=C/c1nc(-c2ccc(C)s2)oc1O
EC50 [1]: 21.4 µM (active)

COc1ccccc1OCC(=O)Nc1cccc(-c2nnc(-c3ccco3)o2)c1
IC50 [2]: > 79 µM (inactive)

COC(=O)/C(=C\c1ccc([N+](=O)[O-])o1)NC(=O)c1ccccc1
EC50 [3]: 0.53 µM (active)
EC50 [4]: > 160 µM (inactive)

Cc1ccc(-c2csc(NC(=O)Cn3[nH]c(=O)c4ccccc4c3=O)n2)cc1
IC50 [2]: > 79 µM (inactive)

COC(=O)c1ccccc1NC(=O)CSc1nc(Nc2ccccc2)nc(N2CCOCC2)n1
EC50 [1]: > 260 µM (inactive)

Cc1nn2c(-c3cccc(NC(=O)c4ccco4)c3)nnc2c2ccccc12
IC50 [2]: > 79 µM (inactive)

COc1cc(SC)ccc1C(=O)Nc1nccs1
IC50 [5]: 53.6 µM (inactive)

O=C(NC12CC3CC(CC(C3)C1)C2)N1CCN(c2nc(-c3ccccc3)cs2)CC1
AC50 [6]: 11.2 µM (inconclusive)
AC50 [7]: 6.31 µM (inconclusive)

COc1ccc(Br)cc1C(=O)Nc1cccc(NC(=O)c2ccco2)c1
IC50 [2]: > 79 µM (inactive)
CC50 [8]: 29.1 µM (active)

CC(C)C(CCNCc1ccccn1)c1ccc(Cl)cc1 (stereo not drawn)
IC50 [5]: > 100 µM (inactive)

CCOC(=O)c1cnc(Nc2nc3ccccc3o2)nc1CSc1nnc(C)s1
IC50 [2]: 13.4 µM (active)

O=C(Nc1csc(Cl)c1)c1ccccc1
IC50 [5]: > 100 µM (inactive)

Cc1ccc(OCc2ccc(C(=O)Nc3nccs3)o2)cc1C
AC50 [9]: 15.8 µM (inconclusive)
IC50 [5]: > 100 µM (inactive)

COc1ccc(C2C(C(=O)N3CCOCC3)CCC(=O)N2c2ccc(OC)cc2)cc1 (stereo not drawn)
AC50 [6]: 17.8 µM (inconclusive)
AC50 [7]: 0.0631 µM (inconclusive)

COC(=O)C1(CC(C)C)C=C2C(=C(c3ccccc3)C(=O)C2C)CN1 (stereo not drawn)
AC50 [6]: 25.1 µM (inconclusive)
AC50 [7]: 15.8 µM (inconclusive)

COc1ccc(CNc2nc(-c3ccc(N(C)C)cc3)nc3ccccc23)c(OC)c1
AC50 [9]: 25.1 µM (inconclusive)
AC50 [6]: 5.01 µM (inconclusive)

Cc1ccc2[nH]c(C)c(/C=C3/C(=N)N4N=C(CC(=O)N5CCOCC5)SC4=NC3=O)c2c1
IC50 [5]: > 100 µM (inactive)
EC50 [10]: 38.3 µM (active)
EC50 [11]: > 300 µM (inconclusive)

O=S(=O)(Nc1nc2ccccc2s1)c1ccc(Br)s1
EC50 [3]: 1.94 µM (active)
EC50 [4]: > 150 µM (inactive)

C[C@H](NC(=O)[C@@H]1CSC2c3ccccc3C(=O)N21)C(=O)NCCc1ccccc1 (stereo partly drawn)
EC50 [1]: 248 µM (active)

Cn1cccc1C(=O)N1CCC2(CCCN(C(=O)Nc3cccc(F)c3)C2)CC1
AC50 [6]: 10 µM (inconclusive)

O=c1c2ccccc2nnn1CSc1ncnc2ccccc12
EC50 [1]: 10.7 µM (active)

COC(=O)Sc1nc(N2CCOCC2)c2c(c1C#N)CC(C)(C)OC2
IC50 [2]: 38.6 µM (inactive)

Clc1ccc(-c2cn3cc(Br)ccc3n2)cc1Cl
IC50 [5]: > 100 µM (inactive)

CCn1cnc2c1c(=O)n(Cc1nnc3n1-c1ccccc1SC3)c(=O)n2Cc1ccccc1
EC50 [1]: > 260 µM (inactive)

COc1ccc(CCNC(=O)c2c(O)c3ccccc3n(C)c2=O)cc1
EC50 [3]: > 38 µM (not active)
EC50 [4]: 72.2 µM (active)

CC(C)c1ccc(C(=O)Nc2ccc(CN3CCOCC3)cc2)cc1
IC50 [5]: 3.18 µM (active)

O=C(c1cc(COc2cccc(C(F)(F)F)c2)on1)N1CCC(c2ccncc2)CC1
AC50 [12]: 5.33 µM (active)
EC50 [3]: > 38 µM (not active)
AC50 [13]: 6.22 µM (active)
EC50 [4]: > 150 µM (inactive)

CC1=CC(=O)N(c2cccc(C(F)(F)F)c2)C1c1ccc(Cl)cc1 (stereo not drawn)
AC50 [6]: 10 µM (inconclusive)
AC50 [7]: 14.1 µM (inconclusive)

CN(C)Cc1ccccc1-c1cncnc1NCc1cccs1
AC50 [6]: 1.26 µM (inconclusive)

CCCCCOC(=O)CSc1nnc(-c2ccccc2)c(O)n1
AC50 [6]: 22.4 µM (inconclusive)

O=C(CC(c1ccco1)S(=O)(=O)c1ccccc1)c1ccc(F)cc1 (stereo not drawn)
EC50 [1]: > 260 µM (inactive)

COc1c(C(=O)Nc2nccs2)ccc2ccccc12
IC50 [5]: 17.1 µM (active)

Cc1noc(C)c1S(=O)(=O)N1CCCC(C(=O)NCCc2ccc(Cl)cc2)C1 (stereo not drawn)
IC50 [5]: > 100 µM (inactive)

CN(C)C(CNC(=O)CCc1nc2cc(Cl)ccc2n(Cc2ccccc2)c1=O)c1ccccc1 (stereo not drawn)
IC50 [5]: 58.1 µM (inactive)

CCn1ncc(C2=NOC(C(=O)Nc3ccc(C)cc3)C2)c1C (stereo not drawn)
AC50 [13]: 32.8 µM (active)

O=C1c2ccccc2NC(c2ccc3c(c2)OCO3)N1O (stereo not drawn)
AC50 [9]: 14.1 µM (inconclusive)
AC50 [14]: 14.1 µM (inconclusive)
AC50 [6]: 22.4 µM (inconclusive)

O=C1CCC(C(=O)OCC(=O)N2N=C3/C(=C\c4ccccc4)CCCC3C2c2ccccc2)N1 (stereo not drawn)
IC50 [5]: > 100 µM (inactive)

CCc1nc2c(OCc3ccc(C(F)(F)F)cc3)cccn2c1N(C)C(=O)c1ccncc1
IC50 [5]: 4.62 µM (active)

O=[N+]([O-])c1ccc(COc2ccc(CN3CCCC3)cc2)cc1
IC50 [5]: 3.75 µM (active)

COc1ccc(NC(=O)N(C)[C@H]2C[C@H]3c4[nH]c5ccc(-c6ccc7c(c6)OCO7)cc5c4CCN3C[C@H]2[C@H](C)O)cc1
IC50 [2]: > 79 µM (inactive)

CC(=O)Nc1cccc(-c2cc(NC=O)c3ncc(-c4ccc(C(C)=O)cc4)n3c2)c1
IC50 [2]: 11.2 µM (active)

C=CCNC(=S)N/N=C/c1ccc(-c2ccc(Br)cc2)o1
EC50 [1]: 134 µM (active)

CCOC(=O)COc1ccc(/C=C2/S/C(=N/c3ccccc3)N(Cc3cccnc3)C2=O)cc1OC
EC50 [1]: 31.7 µM (active)

Cc1[nH]c2ccccc2c1/C=C/c1cc[n+](C)cc1
AC50 [9]: 17.8 µM (inconclusive)
EC50 [3]: > 38 µM (not active)
EC50 [4]: 120 µM (inconclusive)
